The values below come from patent US7659081B2, “Determination of AM-binding proteins and the association of adrenomedullin (AM) therewith” (The United States of America as represented by the …, priority 1999, dated 2010).

In brackets after ≈: the same amount, converted by molar mass.

Test [1] relates to AM-binding protein. Nature of the test: Competitive displacement of 125I-AM on radioligand blot strips. Particulars: increasing concentrations, 10^−10 to 10^−6 M. The method, then: Further detection and characterization of AM-BPs were performed using radioligand blotting procedures similar to those described for IGF binding proteins in plasma (P. Hossenlopp et al., 1986, Anal. Biochem. 154:138-146). Briefly, plasma or serum from the ten species was diluted 1:5 with water and further mixed 1:2 with SDS Tris-glycineglycerol loading buffer and incubated for 10 min at 70° C. Plasma or serum volumes equivalent to 1.5 μl were loaded onto 10% acrylamide gels under non-reducing conditions. Proteins were separated at 115 v for 0.5 hr and transferred to 0.2 μm nitrocellulose using a semi-moist transfer (Bio-Rad Hercules, Calif.) at 18 v for 42 min. Molecular weight markers (29 kD, 43 kD, 66 kD, 78 kD, and 116 kD) were added to complementary lanes on each gel to assess the relative sizes of the resolved proteins.
Nitrocellulose blots were incubated for 15 min with 1.5% NP-40 (Sigma, St. Louis, Mo.). Nonspecific binding was further blocked with a 4 hr incubation of the nitrocellulose in phosphate buffered saline containing either 1% BSA (RIA Grade, SIGMA, St. Louis, Mo.) or 1% AHC. Incubations with radiolabeled recombinant human ^125I-AM were performed overnight at room temperature with agitation, with 80,000 CPM ^125I-hAM per 5 ml protein blocking matrix. […]

Test [2] has as its target factor H (Homo sapiens, UniProt P08603). Nature of the test: Multi-well plate competition of fluorescein-labeled AM binding to factor H. Also noted: purchased Sigma. Particulars: 50 nM fluorescein-labeled AM; factor H 5 ng/well; increasing concentrations of unlabeled competitor. The method, then: Lane 1: horseradish peroxidase (5 μg), a glycosylated protein used as positive control; Lane 2: soybean trypsin inhibitor (5 μg), a non-glycosylated protein used as negative control; Lane 3: AMBP-1 (2 μg). […] Lane 1: isoelectric focusing markers; Lane 2: AMBP-1 (4 μg). […] Lane 1: AMBP-1 (100 ng); Lane 2: AMBP-1 (200 ng); Lane 3: commercially available human factor H (50 ng); Lane 4: human plasma (0.2 μl). […] Results represent one of two independent experiments. Values represent mean and standard deviation of three determinations. “B/B0” indicates the ratio of signals generated in the presence/absence of unlabeled competitor.
Alternatively, the AM/fH interaction was analyzed using a multi-well assay. In accordance with this assay, a 96-well polyvinylchloride (PVC) plate was coated with factor H (5 ng/well, Sigma, St. Louis, Mo.). The plate was blocked with a solution containing TBS, 0.1% ATC, and 0.1% TWEEN® 20 nonionic detergent, and then incubated with fluorescein-labeled AM (50 nM) for 2 hr. Prior to the development of the assay, the wells were incubated for various time periods with PBS or 3M NaSCN pH 7.4. Following this, the plate was washed and incubated with anti-fluorescein polyclonal antibody (1:1000, Molecular Probes) and ^125I-Protein A (Amersham Pharmacia Biotech). Radioactivity was determined using a gamma counter. FIG. 6B.

Test [3] relates to E. coli cells (ATCC 35218). It is filed as cell-based. As for the experimental part:
FIG. 9 illustrates the effect of factor H on AM activity. […] Values represent mean and standard deviation of four independent determinations. […] Results are expressed in inhibition units (10 units correspond to 1 mm of diameter in the inhibition halo). MIC values were estimated by performing a linear regression and determining the x-intercepts. […] Values represent mean and standard deviation of the mean of eight determinations.
Antimicrobial activity was measured using E. coli cells (ATCC 35218, Gaithersburg, Md.) and a radial diffusion assay as previously described (R. I. Lehrer et al., 1991, J. Immunol. Methods 137:167-173). Briefly, bacteria were incorporated into a thin underlay gel that contained 1% agarose, 2 mM HEPES pH 7.2, and 0.3 mg/ml of trypticase soy broth powder. After polymerization of the gel, small wells (10 μl capacity) were carved in the agar. Test substances were added and allowed to diffuse for 3 hr at 37° C. […] The diameters of the inhibition halos were measured to the nearest 0.1 mm and, after subtracting the diameter of the well, were expressed on inhibition units (10 units=1 mm). […]
For statistical calculations, MIC values were analyzed by the Student's t test, cAMP values were analyzed with a one-way analysis of variance (ANOVA) and the Tukey's test, and P<0.05 was considered significant.

Test [4] deals with insulin secretion. Particulars: cited from earlier work.

Chain of factor H (P08603 19-1231): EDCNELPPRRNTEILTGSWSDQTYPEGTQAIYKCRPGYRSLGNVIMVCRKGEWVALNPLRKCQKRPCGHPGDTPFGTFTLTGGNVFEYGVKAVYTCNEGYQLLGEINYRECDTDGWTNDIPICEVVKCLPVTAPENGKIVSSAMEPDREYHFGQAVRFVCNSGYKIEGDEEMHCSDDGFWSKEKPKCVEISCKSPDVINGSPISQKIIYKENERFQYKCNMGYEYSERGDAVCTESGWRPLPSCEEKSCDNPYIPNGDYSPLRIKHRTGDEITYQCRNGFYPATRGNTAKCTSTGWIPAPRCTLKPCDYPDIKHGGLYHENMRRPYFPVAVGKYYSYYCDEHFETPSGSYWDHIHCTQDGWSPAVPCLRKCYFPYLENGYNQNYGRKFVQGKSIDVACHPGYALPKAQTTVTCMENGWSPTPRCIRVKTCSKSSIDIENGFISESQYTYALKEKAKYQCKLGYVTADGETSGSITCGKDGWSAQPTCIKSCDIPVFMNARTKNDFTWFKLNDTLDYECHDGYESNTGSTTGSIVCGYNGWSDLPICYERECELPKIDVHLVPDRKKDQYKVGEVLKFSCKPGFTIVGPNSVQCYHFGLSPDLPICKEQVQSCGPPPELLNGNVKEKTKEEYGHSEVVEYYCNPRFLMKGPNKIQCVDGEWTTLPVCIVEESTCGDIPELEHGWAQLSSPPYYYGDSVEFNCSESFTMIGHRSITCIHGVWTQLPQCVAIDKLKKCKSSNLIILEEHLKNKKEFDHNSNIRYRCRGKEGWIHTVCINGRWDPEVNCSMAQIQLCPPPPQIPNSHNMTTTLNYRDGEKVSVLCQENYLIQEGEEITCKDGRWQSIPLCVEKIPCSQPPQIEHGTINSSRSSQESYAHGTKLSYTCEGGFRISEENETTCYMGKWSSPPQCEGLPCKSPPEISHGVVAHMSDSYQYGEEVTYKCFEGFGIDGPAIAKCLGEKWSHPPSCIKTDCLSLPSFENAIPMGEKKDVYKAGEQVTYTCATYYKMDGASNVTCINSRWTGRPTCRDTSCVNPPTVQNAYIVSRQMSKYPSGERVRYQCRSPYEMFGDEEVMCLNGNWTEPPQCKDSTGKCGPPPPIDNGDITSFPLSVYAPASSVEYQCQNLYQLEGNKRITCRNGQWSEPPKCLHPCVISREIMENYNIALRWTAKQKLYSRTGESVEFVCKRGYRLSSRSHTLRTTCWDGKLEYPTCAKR

As to `CC[C@H](C)[C@H](NC(=O)[C@H](CCC(N)=O)NC(=O)[C@H](Cc1c[nH]cn1)NC(=O)[C@H](C)NC(=O)[C@H](CC(C)C)NC(=O)[C@H](CCCCN)NC(=O)[C@H](CCC(N)=O)NC(=O)[C@@H](NC(=O)[C@@H](NC(=O)[C@@H]1CSSC[C@H](NC(=O)CNC(=O)[C@H](Cc2ccccc2)NC(=O)[C@H](CO)NC(=O)[C@H](CCCNC(=N)N)NC(=O)[C@H](CC(C)C)NC(=O)CNC(=O)[C@H](CCC(N)=O)NC(=O)[C@H](Cc2ccccc2)NC(=O)[C@H](CC(N)=O)NC(=O)[C@H](CC(N)=O)NC(=O)[C@H](CCSC)NC(=O)[C@H](CO)NC(=O)[C@H](CCC(N)=O)NC(=O)[C@H](CCCNC(=N)N)NC(=O)[C@@H](N)Cc2ccc(O)cc2)C(=O)N[C@@H](CCCNC(=N)N)C(=O)N[C@@H](Cc2ccccc2)C(=O)NCC(=O)N[C@@H]([C@@H](C)O)C(=O)N1)[C@@H](C)O)C(C)C)C(=O)N[C@@H](Cc1ccc(O)cc1)C(=O)N[C@@H](CCC(N)=O)C(=O)N[C@@H](Cc1ccccc1)C(=O)N[C@H](C(=O)N[C@@H](CC(=O)O)C(=O)N[C@@H](CCCCN)C(=O)N[C@@H](CC(=O)O)C(=O)N[C@@H](CCCCN)C(=O)N[C@@H](CC(=O)O)C(=O)N[C@@H](CC(N)=O)C(=O)N[C@H](C(=O)N[C@@H](C)C(=O)N1CCC[C@H]1C(=O)N[C@@H](CCCNC(=N)N)C(=O)N[C@@H](CO)C(=O)N[C@@H](CCCCN)C(=O)N[C@H](C(=O)N[C@@H](CO)C(=O)N1CCC[C@H]1C(=O)N[C@@H](CCC(N)=O)C(=O)NCC(=O)N[C@@H](Cc1ccc(O)cc1)C(N)=O)[C@@H](C)CC)C(C)C)[C@@H](C)O` [AM, Adrenomedullin], the “Displacement of 125I-AM from AMBPs” value in test [1] is “linear competitive displacement”. Further, in test [2], the “Effect on binding of fluorescein-labeled AM to factor H-coated plate” value is given as “competitively inhibited”. This compound gave an MIC value in test [3] of 18.4 ± 1.3 µg/mL (≈ 3.05 µM). The Insulin secretion result in test [4] is on record as “inhibits insulin secretion in a dose-dependent manner”.
